How the values were obtained:
androgen receptor (AR) = biological target: T1, androgen receptor (AR) (Homo sapiens, UniProt P10275, T878A); experiment: Androgen-induced PSA (6.1 kb)-luciferase reporter assay in LNCaP cells; type: cell-based; conditions: LNCaP cells transfected with PSA (6.1 kb)-luciferase reporter, R1881 1 nM, 24 h; read-out: PSA-Luc IC50 Range
T1 construct: LNCaP cells were transiently transfected with the PSA (6.1 kb)-luciferase reporter for 24 h; endogenous in cells; host or cells: LNCaP
T1 sequence (P10275 1-920 T878A): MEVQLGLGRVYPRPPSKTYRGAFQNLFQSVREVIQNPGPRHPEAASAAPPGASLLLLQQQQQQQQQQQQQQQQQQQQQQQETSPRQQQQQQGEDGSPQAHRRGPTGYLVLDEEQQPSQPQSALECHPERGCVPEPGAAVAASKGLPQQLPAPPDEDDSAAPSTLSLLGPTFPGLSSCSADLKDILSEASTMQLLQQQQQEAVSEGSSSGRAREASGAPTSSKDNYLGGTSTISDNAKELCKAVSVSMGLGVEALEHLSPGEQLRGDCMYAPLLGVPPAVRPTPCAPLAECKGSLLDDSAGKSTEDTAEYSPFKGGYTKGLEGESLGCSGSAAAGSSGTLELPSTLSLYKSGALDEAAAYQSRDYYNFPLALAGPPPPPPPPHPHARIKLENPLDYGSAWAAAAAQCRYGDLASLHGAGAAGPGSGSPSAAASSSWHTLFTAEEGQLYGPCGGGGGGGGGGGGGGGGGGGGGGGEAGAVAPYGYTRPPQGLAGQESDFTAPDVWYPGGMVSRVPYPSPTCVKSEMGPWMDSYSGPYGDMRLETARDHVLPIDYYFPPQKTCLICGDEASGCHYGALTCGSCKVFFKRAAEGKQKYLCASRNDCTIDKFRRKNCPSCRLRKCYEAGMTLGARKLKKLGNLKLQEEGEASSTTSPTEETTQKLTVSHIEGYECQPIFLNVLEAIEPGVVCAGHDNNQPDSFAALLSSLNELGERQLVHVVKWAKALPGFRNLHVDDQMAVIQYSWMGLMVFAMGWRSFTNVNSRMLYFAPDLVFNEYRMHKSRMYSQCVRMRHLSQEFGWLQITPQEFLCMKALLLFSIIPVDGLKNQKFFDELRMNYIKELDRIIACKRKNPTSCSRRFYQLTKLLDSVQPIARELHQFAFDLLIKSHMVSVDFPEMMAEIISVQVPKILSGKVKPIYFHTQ
Method: The PSA (6.1 kb)-luciferase reporter contains functional AREs (androgen response elements) to which AR binds in response to androgen to induce luciferase activity.
Cells were lysed using Passive Lysis Buffer (Promega) and then collected into V-bottom 96-well tissue culture plates. Lysates were centrifuged at 4° C. for 5 minutes at 3000 rpm. To measure luminescence of LNCaP cell lysates the Firefly Luciferase Assay System (Promega) was employed, according to manufacturer's protocol. Relative luminescence units (RLU) in cell lysates were detected for 10 seconds using Promega GloMax-Multi Detection Luminometer (Promega). Values were normalized to protein content. GraphPad Prism graphing software was used to calculate IC50 values.
Comparisons between treatment and control groups were compared using Two-Way ANOVA with post-hoc Dunnett's and Tukey's tests. Differences were considered statistically significant at P values less than 0.05.

[1] = Microsomal stability assay, human liver microsomes; type: in vitro ADME; conditions: pH 7.4, 1 μM compound, 0.5 mg/mL protein, 37° C., read-out: HLM +/− NADPH: Clint (μL/min/mg protein)
Method: Microsomal stability assay is a widely used in vitro model to characterize the metabolic conversion by phase I enzymes, such as cytochrome P450 (CYP) enzymes. Since metabolism is known to be highly variable in different species, microsomal stability assay is commonly run in multiple species. Metabolic stability of testing compound can be evaluated using human, rat, mouse, or other animal liver or intestine microsomes to predict intrinsic clearance.
The assay was carried out in 96-well microtiter plates at 37° C. Reaction mixtures (25 μL) contained a final concentration of 1 μM test compound, 0.5 mg/mL liver microsomes protein, and 1 mM NADPH and/or 1 mM UDPGA (with alamethicin) in 100 mM potassium phosphate, pH 7.4 buffer with 3 mM MgCl2. The incubation was done with N=1, but duplicate incubation at each time point can be prepared if necessary. At each of the time points (for example, 0, 15, 30, and 60 minutes), 150 μL of quench solution (100% acetonitrile with 0.1% formic acid) with internal standard was transferred to each well. Besides the zero minute controls, mixtures containing the same components except the NADPH can also be prepared as the negative control. Verapamil was included as a positive control to verify assay performance. Plates were sealed, vortexed, and centrifuged at 4° C. for 15 minutes at 4000 rpm. The supernatant is transferred to fresh plates for LC/MS/MS analysis.
Summarized conditions: [Compound]=[…], [LM]=0.5 mg/mL, [NADPH]=1 mM and/or [UDPGA]=1 mM, Buffer=100 mM Potassium Phosphate, pH 7.4 with 3 mM MgCl2, Time=0, 15, 30, and 60 min, and Temperature=37° C.
All samples were analyzed on LC/MS/MS using an AB Sciex API 4000 instrument, coupled to a Shimadzu LC-20AD LC Pump system. Analytical samples were separated using a Waters Atlantis T3 dC18 reverse phase HPLC column (20 mm×2.1 mm) at a flow rate of 0.5 mL/min. The mobile phase consisted of 0.1% formic acid in water (solvent A) and 0.1% formic acid in 100% acetonitrile (solvent B).
The extent of metabolism is calculated as the disappearance of the test compound, compared to the 0-min time incubation. Initial rates are calculated for the compound concentration and used to determine half-life (t½) values and subsequently, the intrinsic clearance (Clint). Clint=(0.693)(1/t½ (min))(g of liver/kg of body weight)(mL incubation/mg of microsomal protein)(45 mg of microsomal protein/g of liver weight)

IC50 (androgen receptor (AR)) [nM] | microsomal CLint at 1 μM [1] [µL/min/mg] | SMILES
500 to 2000 | < 12 | CC(C)(c1ccc(OCc2cn(S(C)(=O)=O)cn2)cc1)c1cc(Cl)c(OCCCCl)c(Cl)c1 [Compound A5, 4-((4-(2-(3,5-dichloro-4-(3-chloropropoxy)phenyl)propan-2-yl)phenoxy)methyl)-1-(methylsulfonyl)-1H-imidazole]
> 2000 | ≥ 48 | CC(C)(c1ccc(OCc2nnc(S(C)(=O)=O)o2)cc1)c1cc(Cl)c(OCCCCl)c(Cl)c1 [Compound A7, 2-((4-(2-(3,5-dichloro-4-(3-chloropropoxy)phenyl)propan-2-yl)phenoxy)methyl)-5-(methylsulfonyl)-1,3,4-oxadiazole]
500 to 2000 | < 12 | CSc1nnc(COc2ccc(C(C)(C)c3cc(Cl)c(OCCCCl)c(Cl)c3)cc2)o1 [Compound A17]
> 2000 | ≥ 48 | CC(C)(c1ccc(OCc2nnc(O)o2)cc1)c1cc(Cl)c(OCCCCl)c(Cl)c1 [Compound A18]
 | < 12 | CC(C)(c1ccc(-c2coc(CNS(C)(=O)=O)n2)cc1)c1cc(Cl)c(OCCCCl)c(Cl)c1 [Compound A21]
> 2000 | < 12 | CC(C)(c1ccc(-c2cc(CNS(C)(=O)=O)on2)cc1)c1cc(Cl)c(OCCCCl)c(Cl)c1 [Compound A22, N-((3-(4-(2-(3,5-dichloro-4-(3-chloropropoxy)phenyl)propan-2-yl)phenyl) Isoxazol-5-yl)methyl)methanesulfonamide]
> 2000 | 12 to 48 | CC(=O)Nc1cc(COc2ccc(C(C)(C)c3cc(Cl)c(OCCCCl)c(Cl)c3)cc2)on1 [Compound A23]
500 to 2000 | < 12 | CC(C)(c1ccc(-n2cnc(CNS(C)(=O)=O)c2)cc1)c1cc(Cl)c(OCCCl)c(Cl)c1 [Compound A24]
> 2000 | < 12 | CC(C)(c1ccc(-c2c[nH]c(CNS(C)(=O)=O)n2)cc1)c1cc(Cl)c(OCCCCl)c(Cl)c1 [Compound A25]
< 500 | 12 to 48 | CC(C)(C)N(c1ccc(OCc2ocnc2S(C)(=O)=O)cc1)c1cc(Cl)c(OCCCl)c(Cl)c1 [Compound A31, N-tert-Butyl-3,5-dichloro-4-(2-chloroethoxy)-N-[4-[(4-methylsulfonyloxazol-5-yl)-methoxy]-phenyl]aniline]
500 to 2000 | 12 to 48 | CC(C)(c1ccc(OCc2[nH]ncc2NS(C)(=O)=O)cc1)c1cc(Cl)c(OCCCl)c(Cl)c1 [Compound A40, N-[3-[[4-[1-[3,5-Dichloro-4-(2-chloroethoxy)phenyl]-1-methyl-ethyl]phenoxy]methyl]-1H-pyrazol-4-yl]methanesulfonamide]
> 2000 | ≥ 48 | CC(C)(c1ccc(OCc2ncncc2NS(C)(=O)=O)cc1)c1cc(Cl)c(OCCCl)c(Cl)c1 [Compound A41, N-(4-((4-(2-(3,5-Dichloro-4-(2-chloroethoxy)phenyl)propan-2-yl)phenoxy)methyl)pyrimidin-5-yl)methanesulfonamide]
> 2000 | < 12 | CCOc1c(Cl)cc(C(C)(C)c2ccc(OCc3ocnc3S(C)(=O)=O)cc2)cc1Cl [Compound A52]
> 2000 | < 12 | CC(C)(c1ccc(OCc2ocnc2S(C)(=O)=O)cc1)c1cc(Cl)c(OCCN)c(Cl)c1 [Compound A53]
500 to 2000 | < 12 | CC(C)(c1ccc(OCc2ocnc2S(C)(=O)=O)cc1)c1cc(Cl)c(OCCC(F)(F)F)c(Cl)c1 [Compound A54, 5-((4-(2-(3,5-Dichloro-4-(3,3,3-trifluoropropoxy)phenyl)propan-2-yl)phenoxy)methyl)-4-(methylsulfonyl)oxazole]
500 to 2000 | < 12 | COc1c(Cl)cc(C(C)(C)c2ccc(OCc3ocnc3S(C)(=O)=O)cc2)cc1Cl [Compound A56]
> 2000 | < 12 | CC(C)(c1ccc(OCCCl)c(Cl)c1)c1ccc(OCc2ocnc2S(C)(=O)=O)c(C#N)c1 [Compound A62]
500 to 2000 | 12 to 48 | CC(C)(c1ccc(OCCCl)c(C#N)c1)c1ccc(OCc2ocnc2S(C)(=O)=O)c(C#N)c1 [Compound A63, 2-(2-chloroethoxy)-5-(2-(3-cyano-4-((4-(methylsulfonyl)oxazol-5-yl)methoxy)phenyl)propan-2-yl)benzonitrile]
> 2000 | ≥ 48 | Cc1nc(-c2ccc(C(C)(C)c3cc(Cl)c(OCCCCl)c(Cl)c3)cc2)co1 [Compound A64]
500 to 2000 | < 12 | CC(C)(c1ccc(Nc2ncc(CNS(C)(=O)=O)o2)cc1)c1cc(Cl)c(OCCCl)c(Cl)c1 [Compound A75, N-((2-((4-(2-(3,5-Dichloro-4-(2-chloroethoxy)phenyl)propan-2-yl)phenyl)amino)oxazol-5-yl)methyl)methanesulfonamide]
500 to 2000 | < 12 | CC(C)(c1cc(Cl)c(OCCCl)c(Cl)c1)c1ccc(OCc2ocnc2S(C)(=O)=O)c(C(N)=O)c1 [Compound A76]
< 500 | 12 to 48 | CC(C)(c1ccc(OCc2n[nH]cc2NS(=O)(=O)C(F)(F)F)cc1)c1cc(Cl)c(OCCCl)c(Cl)c1 [Compound A106]
500 to 2000 |  | CC(C)(c1ccc(OCc2noc(S(C)(=O)=O)n2)cc1)c1cc(Cl)c(OCCCl)c(C#N)c1 [Compound A151]
500 to 2000 |  | CC(C)(c1ccc(OCc2nc(NS(C)(=O)=O)nc3c2CCNC3)cc1)c1cc(Cl)c(OCCCl)c(C#N)c1 [Compound A191]
500 to 2000 |  | CC(C)(c1ccc(OC2CCc3cnc(NS(C)(=O)=O)nc32)cc1)c1cc(Cl)c(OCCCl)c(C#N)c1 (stereo not drawn) [Compound A203]
500 to 2000 |  | CC(C)(c1ccc(OCc2ccnc(NS(C)(=O)=O)n2)cc1)c1cc(F)c(OCCCl)c(C#N)c1 [Compound A205]

SMILES | IC50 (androgen receptor (AR)) [nM] | microsomal CLint at 1 μM [1] [µL/min/mg]
CC(C)(c1ccc(OCc2ocnc2S(C)(=O)=O)cc1)c1cc(Cl)c(NCCCl)c(Cl)c1 [Compound A50] | 500 to 2000 | 12 to 48
CC(C)(c1ccc(OCc2ocnc2S(C)(=O)=O)cc1)c1cnc(NCCCl)nc1 [Compound A58] | > 2000 | 12 to 48

Source: US11059795B2, “Androgen receptor modulators and methods for their use” (ESSA Pharma, Inc., priority 2018, dated 2021)
